Tests used:
Aiolos = assay: IMiD activity: Aiolos degradation in PBMCs by flow cytometry; assay type: cell-based; conditions: human PBMCs, 24 hours; for Dmax: maximum percent Aiolos degradation in the assay; for DC50: compound concentration degrading 50% of Aiolos
Protocol: In addition, Compounds 1-24 were assayed for IMiD activity. Frozen human peripheral blood mononuclear cells (PBMCs) were thawed and treated with DMSO or compound for 24 hours and then fixed and permeabilized using a Foxp3/Transcription Factor Fixation/Permeabilization Kit (eBioscience, 00-5523). Cells were stained with fluorophore-conjugated antibodies against CD20 (Biolegend 302330), CD3 (BD Pharmingen 552127), and Aiolos (Biolegend 371106). An additional set of DMSO-treated PBMCs was stained for CD20, CD3, and an AlexaFluor 647-conjugated mouse IgG1 isotype control antibody (Biolegend 400136). Stained cells were run on an Attune NxT Acoustic Focusing Flow Cytometer (Thermo-Fisher A29004), and data was analyzed using FlowJo (v10.5.3) and GraphPad Prism (v7.00) software. Single lymphocytes were gated for B cells (CD20+CD3-) and T cells (CD3+CD20-), and the geometric mean fluorescence intensity (MFI) of Aiolos was calculated for each population. The MFI of the isotype control was calculated for each population and used to quantify background staining. Percent Aiolos degradation was calculated for each compound-treated sample using the following equation: […]
DC50 is the compound concentration degrading 50% of Aiolos. Dmax is the maximum percent Aiolos degradation in the assay.

[1] = tested on: Experimental autoimmune encephalomyelitis (EAE); assay: Experimental autoimmune encephalomyelitis (EAE) model; assay type: in vivo, C57BL/6 mice; conditions: EAE, 30 mg/kg, spinal cords collected on day 22
Protocol: EAE was induced in C57BL/6 mice by immunization with an emulsion of MOG1-125 in complete Freund's adjuvant (CFA), followed by administration of pertussis toxin in PBS, first on the day of immunization (Day 0) and then again the following day (Day 1).
Dosing of all mice started on Day −1 and continued through Day 22. Fingolimod (FTY720, Gilenya) is the a commonly used positive control in this model.
Statistical significance was determined between vehicle control and treated groups based on the end clinical scores using Wilcoxon's non-parametric test.
Statistical analysis: Demyelination (anti-MBP) with Wilcoxon's non-parametric test; inflammatory foci or apoptosis with two-tailed Student's t-test.

DC50 (Aiolos) [nM] | SMILES | Dmax (Aiolos) [%] | other results
– | NC(=O)c1ncc(N2CCCCC2)nc1Nc1ccc(C2CCN(CC3CCN(c4ccc(CC5CCC(=O)NC5=O)cn4)CC3)CC2)cc1 (centres unmarked) [Compound 10] | 3.2 | –
2650 | CN1CCN([C@@H]2CCCN(c3cnc(C(N)=O)c(Nc4ccc(N5CCC6(CCCN(c7ccc8c(c7)C(=O)N(C7CCC(=O)NC7=O)C8=O)C6)CC5)cc4)n3)C2)C1=O (some centres unmarked) [Compound 18] | 28.2 | –
344 | NC(=O)c1ncc(N2CCCCC2)nc1Nc1ccc2c(c1)CCN(CC1CCN(c3ccc(C(=O)NC4CCC(=O)NC4=O)nc3)CC1)C2 (racemic) [Compound 4, rac-3-[(2-{[1-(6-{[(3R)-2,6-dioxopiperidin-3-yl]carbamoyl}pyridin-3-yl)piperidin-4-yl]methyl}-3,4-dihydro-1H-isoquinolin-6-yl)amino]-5-(piperidin-1-yl)pyrazine-2-carboxamide] | 28.3 | –
– | Cn1c(=O)n([C@@H]2CCC(=O)NC2=O)c2ccc(N3CC[C@H](CN4CCC(c5ccc(Nc6nc(N7CCCCC7)cnc6C(N)=O)cc5)CC4)C3)cc21 [Compound 6] | 1.1 | –
– | CN1CCN([C@@H]2CCCN(c3cnc(C(N)=O)c(Nc4ccc(C5CCN(CC6CCN(c7cnc(C(=O)NC8CCC(=O)NC8=O)nc7)CC6)CC5)cc4)n3)C2)C1=O (mixture of isomers) [Compound 3, 5-(4-((4-(4-((3-carbamoyl-6-((R)-3-(3-methyl-2-oxoimidazolidin-1-yl)piperidin-1-yl)pyrazin-2-yl)amino)phenyl)piperidin-1-yl)methyl)piperidin-1-yl)-N—((RS)-2,6-dioxopiperidin-3-yl)pyrimidine-2-carboxamide] | 3.2 | –
2.89 | CN1CCN([C@@H]2CCCN(c3cnc(C(N)=O)c(Nc4ccc(C5CCN(CC6CCN(c7ccc(OC8CCC(=O)NC8=O)cn7)CC6)CC5)cc4)n3)C2)C1=O (some centres unmarked) [Compound 13] | 4.9 | –
37.6 | NC(=O)c1ncc(N2CCCCC2)nc1Nc1ccc(N2CCC3(CCN(Cc4ccc5c(c4)C(=O)N(C4CCC(=O)NC4=O)C5=O)CC3)CC2)cc1 (centres unmarked) [Compound 14] | 30.4 | –
– | CN1CCN([C@@H]2CCCN(c3cnc(C(N)=O)c(Nc4ccc(C5CCN(CC6CCN(c7ccc8c(c7)n(C)c(=O)n8C7CCC(=O)NC7=O)CC6)CC5)cc4)n3)C2)C1=O (some centres unmarked) [Compound 12] | 5.3 | –
596 | CN1CCN([C@@H]2CCCN(c3cnc(C(N)=O)c(Nc4ccc(C5CCN(CC6CCN(c7ccc(C(=O)N[C@@H]8CCC(=O)NC8=O)nc7)CC6)CC5)cc4)n3)C2)C1=O [Compound 2] | 17.9 | –
– | C=CC(=O)N1CCC[C@@H](n2nc(-c3ccc(Oc4ccccc4)cc3)c3c(N)ncnc32)C1 [Ibrutinib, reference compound] | – | Apoptotic cells/section +/− SD [1]: 0.4 +/− 0.7; Inflammatory foci/section +/− SD [1]: 1.0 +/− 1.4; Demyelination score +/− SD ([1]; anti-MBP): 0.4 +/− 0.6
96.6 | CN1CCN([C@@H]2CCCN(c3cnc(C(N)=O)c(Nc4ccc(C5CCN(C[C@H]6CC[C@@H](Nc7cccc8c7C(=O)N([C@@H]7CCC(=O)NC7=O)C8=O)CC6)CC5)cc4)n3)C2)C1=O (racemic) [Compound 9, 5-[(3R)-3-(3-methyl-2-oxoimidazolidin-1-yl)piperidin-1-yl]-3-{[4-(1-{[(1 s,4s)-4-{[2-(2,6-dioxopiperidin-3-yl)-1,3-dioxoisoindol-4-yl]amino}cyclohexyl]methyl}piperidin-4-yl)phenyl]amino}pyrazine-2-carboxamide] | 30.8 | –
– | CN1CCN([C@@H]2CCCN(c3cnc(C(N)=O)c(Nc4ccc(C5(C)CCN(C6CN(Cc7ccc8c(c7)C(=O)N(C7CCC(=O)NC7=O)C8=O)C6)CC5)cc4)n3)C2)C1=O (some centres unmarked) [Compound 16] | 23.6 | –
– | Cn1c(=O)n([C@@H]2CCC(=O)NC2=O)c2ccc(N3CC[C@@H](CN4CCC(c5ccc(Nc6nc(N7CCCCC7)cnc6C(N)=O)cc5)CC4)C3)cc21 [Compound 7] | 4.6 | –
– | CN1CCN([C@@H]2CCCN(c3cnc(C(N)=O)c(Nc4ccc(C5CCN(C[C@@H]6CCN(c7ccc8c(c7)n(C)c(=O)n8C7CCC(=O)NC7=O)C6)CC5)cc4)n3)C2)C1=O (mixture of isomers) [Compound 8, 3-((4-(1 (((3 S)-1-(1-(2,6-dioxopiperidin-3-yl)-3-methyl-2-oxo-2,3-dihydro-1H-benzo[d]imidazol-5-yl)pyrrolidin-3-yl)methyl)piperidin-4-yl)phenyl)amino)-5-((R)-3-(3-methyl-2-oxoimidazolidin-1-yl)piperidin-1-yl)pyrazine-2-carboxamide] | 1.0 | –
468 | CN1CCN([C@@H]2CCCN(c3cnc(C(N)=O)c(Nc4ccc(C5CCN(CC6CCN(c7ccc(C(=O)NC8CCC(=O)NC8=O)cc7)CC6)CC5)cc4)n3)C2)C1=O (mixture of isomers) [Compound 5, 3-((4-(1-((1-(4-(((RS)-2,6-dioxopiperidin-3-yl)carbamoyl)phenyl)piperidin-4-yl)methyl)piperidin-4-yl)phenyl)amino)-5-((R)-3-(3-methyl-2-oxoimidazolidin-1-yl)piperidin-1-yl)pyrazine-2-carboxamide] | 10.1 | –
345 | CN1CCN([C@H]2CCCN(c3cnc(C(N)=O)c(Nc4ccc(C5CCN(CC6CCN(c7ccc(C(=O)NC8CCC(=O)NC8=O)nc7)CC6)CC5)cc4)n3)C2)C1=O (some centres unmarked) [Compound 15] | 27.4 | –
– | CN1CCN([C@@H]2CCCN(c3cnc(C(N)=O)c(Nc4ccc(N5CCN(C(=O)CCOCCCc6ccc7c(c6)C(=O)N(C6CCC(=O)NC6=O)C7)CC5)cc4)n3)C2)C1=O (some centres unmarked) [Compound 19] | 9.1 | –
– | CN1CCN([C@@H]2CCCN(c3cnc(C(N)=O)c(Nc4ccc(C5CCN(CC6CCN(c7ncc(C(=O)NC8CCC(=O)NC8=O)o7)CC6)CC5)cc4)n3)C2)C1=O (some centres unmarked) [Compound 11] | 1.9 | –
– | CN1CCN([C@H]2CCCN(c3cnc(C(N)=O)c(Nc4ccc(N5CCN(CC#Cc6cccc7c6CN(C6CCC(=O)NC6=O)C7=O)CC5)cc4)n3)C2)C1=O (some centres unmarked) [Compound 17] | 15.1 | –

Reference: US20240336595A1, “BIFUNCTIONAL COMPOUNDS FOR DEGRADING BTK WITH DIMINISHED IMID ACTIVITY” (NURIX THERAPEUTICS, INC., priority 2021, published 2024)
